pEC50: −log10 of the molar value.
What was measured:
HRSV = settings: prophylactic use, high risk infants; cited from earlier work
HMPV A2 TN/94-49 = assay: HMPV antiviral assay: LLC-MK2 cells, ATP-Lite readout; assay type: cell-based; settings: LLC-MK2, 168 h, MOI 0.005, 7 days incubation
Outline: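 LLC-MK2 cells (5,000/well) were infected in suspension with HMPV A2 TN/94-49 at MOI 0.005 in serum-free OptiMEM with 2 μg/mL final TPCK-trypsin, then incubated for 7 days at 37 °C. Compounds were tested in duplicate from 2 μM in 10-point 2.5-fold dilutions. ATP-Lite luminescence, normalised to virus-only and cells-only controls as % cell health, gave EC50 by four-parameter fit.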

[1] = system: Human RSV-A (“Long” strain); assay: RSV-A assay: CPE in Hep-2 cells, ATPlite readout; assay type: cell-based; settings: human respiratory syncytial virus, 120 h, MOI 0.1, 5-day incubation
Source text: Hep-2 cells, (originally derived from tumors grown in irradiated-cortisonised weanling rats that had been injected with epidermoid carcinoma tissue from a person's larynx, but later found to be indistinguishable from HeLa cells by PCR DNA analysis), were used for the culturing of genotype A, “Long” strain RSV. Flasks were inoculated with RSV and viral stocks were collected once cytopathic effect (CPE) was greater than 90%. Viral stocks in 25% sucrose media were snap frozen using liquid nitrogen to increase viral stability. Viral stock titers were quantified by tissue culture infectious dose 50% (TCID50) using 8,000 cells per well and 3-fold viral dilutions across a 96-well plate, cultured for 4 days. Viral stock titers were also quantified by a plaque forming unit assay, as described elsewhere.
Following extensive parameter testing, the final assay is run as follows: Hep-2 cells are seeded into the inner 60 wells of a 96-well plate at 8,000 cells per well in a volume of 50 μL using Growth Media (DMEM without phenol red, 1% L-Glut, 1% Penn/Strep, 1% nonessential amino acids, 10% heat-inactivated FBS). 2-fold serial dilutions of control and test compounds are added to the wells in duplicate in a total volume of 25 μL. Viral stock is then added to the wells at a multiplicity of infection (MOI) of 0.1 in a volume of 25 μL, bringing the total volume of each well to 100 μL. The MOI is calculated using the PFU/mL, or TCID50 if unavailable. Each 96-well plate has a control column of 6 wells with cells and virus but no compound (negative control, max CPE), a column with cells but no compound or virus (positive control, minimum CPE), and a column with no cells or virus or compound (background plate/reagent control). The control wells with cells but no virus are given an additional 25 μL of growth media containing an equal quantity of sucrose as those wells receiving the viral stock in order to keep consistent in media and volume conditions. The outer wells of the plate are filled with 125 μL of moat media (DMEM, 100 Penn/Strep) to act as a thermal and evaporative moat around the test wells. Following a 5-day incubation period, the plates are read using ATPlite (50 uL added per well), which quantifies the amount of ATP (a measure of cell health) present in each well. Assay plates are read using the Envision luminometer. […] EC50 ranges are as follows: A<0.01 μM; B 0.01-0.05 μM; C>0.05 μM.

Compound | effective in reducing hospitalizations (HRSV) [%] | pEC50 (HMPV A2 TN/94-49) | pEC50 [1]
Palivizumab | 60 | – | –
COc1cc(C(=O)NC[C@](O)(c2cc(C3(C(N)=O)CC3)c(F)c(-c3ccc(F)c(Cl)c3F)n2)C2CC2)cc2cc(Cl)c(C)nc12 (single isomer, unassigned) [Example 23] | – | < 6.00 | 7.30 to 8.00
COc1cc(C(=O)NC[C@](O)(c2cc(C(O)(C(F)(F)F)C(F)(F)F)c(F)c(-c3ccc(F)cc3)n2)C2CC2)cc2cn(C3CC3)nc12 (single isomer, unassigned) [Example 47] | – | < 6.00 | 7.30 to 8.00
